From US20220339116A1, “LIPID NANOPARTICLES AS ORAL VEHICLES OF IMMUNOTHERAPY” (The Johns Hopkins University, priority 2019, published 2022)

Legend:
[1] = cited from earlier work
[2] = system: bone marrow derived dendritic cells (DC); assay: DC maturation in response to LPS with soluble Tofa (flow cytometry, ELISA); assay type: cell-based, mouse
Protocol: FIGS. 2A-2B. Jak inhibition impacts APC maturation. 2A, Representative graphs of surface expression of maturation markers on DC left untreated or exposed overnight to LPS+/−Tofa. 2B, Supernatants from DC cultures were tested for accumulation of the indicated cytokines by ELISA. n=3.
The latter two have been implicated in T1D development and inhibition of their accumulation would be a valuable effect.

Treg cells = assay: T cell CFSE-Proliferation-Assay of Treg suppressive activity; assay type: cell-based; conditions: Treg at 2:1 or 4:1 T cell to Treg ratio; Tofa at 0.5 or 1 μM
Protocol: FIG. 3. […] Results of CFSE-Proliferation-Assay conducted with the addition of Treg cells (at either 2:1 or 4:1 T cell to Treg ratio) and Tofa (at 0.5 or 1 μM). Values are normalized to the extent of proliferation measured with no Treg.

NOD mice = assay: Diabetes onset in NOD mice after oral gavage; assay type: in vivo, mouse; conditions: amount identical to that used in Tofa-NLC; ongoing group
Description: FIG. 13. Oral administration of Tofa-NLC delays diabetes onset. We tested the effect of Tofa-NLC administration via oral gavage to two treatment groups: 1) 3 week-old NOD mice (corresponding to Pre-stage 1 in human patients) and 2) 10 week-old NOD mice (corresponding to advanced Stage 1 in human patients).
All these characteristics indicate that LNp would be a most valuable delivery system for the tissue selective actuation of a combination immunotherapy. We then began to define the effects of a transient administration of Tofa-NLC on diabetes development in NOD mice. […] We then tested the effect of Tofa-NLC administration via oral gavage to two treatment groups: 1) 3 week-old NOD mice (corresponding to Pre-stage 1 in human patients) and 2) 10 week-old NOD mice (corresponding to advanced Stage 1 in human patients). […] In particular, oral administration to 3-week-old NOD mice prevented onset of disease in 70% of the animals for more than 40 weeks.

Substance: Filgotinib
- Solubility in Dimethyl Sulfoxide [1]: 85 mg/mL

Substance: Tofacitinib
- release of inflammatory cytokines IL-6, IL-1, TNF-α ([2]; DC culture supernatants, ELISA): reduction in release of the prototypical inflammatory cytokines
- up-regulation of CD80 and CD86 costimulatory molecules ([2]; DC exposed to LPS +/- Tofa): significant inhibition of the up-regulation of CD80 and CD86 costimulatory molecules
- up-regulation of MHC-II molecules ([2]; DC exposed to LPS +/- Tofa): did not prevent the up-regulation of MHC-II molecules
- suppressive activity of Treg (Treg cells): preservation of regulatory activity
- therapeutic effect on diabetes development (NOD mice): inferior (if not absent) therapeutic effect
